# Measurements as given in article PMC8667942 (Journal of Enzyme Inhibition and Medicinal Chemistry, 2021).
# Legend:
# [1] = target: T1, CYP1A2 (Homo sapiens, UniProt P05177); experiment: Direct CYP inhibition assay, pooled human liver microsomes, LC-MS/MS; format: in vitro ADME; details: pooled HLMs, up to 50 μM, phenacetin substrate
# T1 construct: from tissue; host or cells: pooled human liver microsomes
# T1 sequence (P05177 1-516): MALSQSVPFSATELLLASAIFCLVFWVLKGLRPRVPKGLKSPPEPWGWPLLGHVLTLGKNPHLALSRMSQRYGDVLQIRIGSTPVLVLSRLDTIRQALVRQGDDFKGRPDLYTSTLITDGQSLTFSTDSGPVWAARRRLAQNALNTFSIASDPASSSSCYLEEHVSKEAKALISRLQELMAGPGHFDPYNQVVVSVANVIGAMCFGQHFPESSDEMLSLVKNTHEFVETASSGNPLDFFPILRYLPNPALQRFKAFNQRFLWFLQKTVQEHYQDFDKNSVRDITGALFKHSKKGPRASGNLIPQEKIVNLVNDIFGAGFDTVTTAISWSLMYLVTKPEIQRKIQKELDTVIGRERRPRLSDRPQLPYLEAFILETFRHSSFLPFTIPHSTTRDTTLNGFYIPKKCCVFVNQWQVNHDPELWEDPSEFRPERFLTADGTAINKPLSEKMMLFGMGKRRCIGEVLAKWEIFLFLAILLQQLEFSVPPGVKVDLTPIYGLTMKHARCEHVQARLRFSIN
# Method: (§1) Reactions were incubated in eight-well strips placed in an 8 × 12 racks (1.2 ml; VWR, Emeryville, CA). The incubation mixtures (final volume, 200 μL) contained 0.2 mg/mL HLMs, 0.1 M phosphate buffer (pH 7.4), 1 mM NADPH, and various CYP isoform-specific substrate cocktail sets (A set: phenacetin, coumarin, amodiaquine, S-mephenytoin, dextromethorphan, and midazolam; B set: bupropion, tolbutamide, chlorzoxazone, and testosterone). […] Substrates were dissolved and serially diluted with acetonitrile to the required concentration in all experiments. […] The reactions were incubated at 37 °C in a shaking water bath. The reactions were terminated by placing the incubation tubes on ice, adding 200 μL of cold acetonitrile containing carbamazepine (100 nM) and 4-methylumbelliferone (500 nM) as an internal standard after 10 min, and agitating with a vortex mixer before centrifugation. The samples for each enzyme assay were centrifuged at 3,000 × g for 20 min at 4 °C, and supernatants of the individual reaction samples and pooled cocktail incubation samples (A set: B set, 1:1) were analysed using LC-MS/MS.
# (§2) Sample injection volume was 10 μL, and separation was performed on an Atlantis™ dC18 column (2.1 × 50 mm i.d., 3 μm; Waters, Milford, MA, USA) and Luna™5u C18 column (2.0 × 30 mm i.d.; Phenomenex, Torrance, CA, USA) with a SecurityGuard™ C18 guard column (2.0 × 4.0 mm i.d.; Phenomenex, Torrance, CA, USA) maintained at 30 °C. The column was pre-equilibrated in 100% v/v solvent A (deionized water containing 0.1% v/v formic acid)/0% v/v solvent B (acetonitrile containing 0.1% v/v formic acid) at a flow rate of 0.4 ml/min. […] Quadrupoles Q1 and Q3 were set on unit resolution. The samples were analysed via multiple reaction monitoring (MRM) and enhanced product ion (EPI) scan mode. The turbo ion spray interface was operated in the positive ion mode at 5,500 V. The operating conditions were determined as follows: ion source temperature, 600 °C; nebulising gas flow, 50 L/min; auxiliary gas flow, 4.0 L/min; curtain gas flow, 20 L/min; collision gas (nitrogen) pressure 3.6 × 10^−5 Torr. Nitrogen gas was used for CUR, CAD, and NEB. The MRM transitions, collision energies and retention time were determined for each metabolite. The samples were analysed via MRM as described in our previous study. The scan dwell time was set at 0.08 s for every channel. Data acquisition and analysis was performed using the Analyst™ software (version 1.5.2; Applied Biosystems, Foster City, CA, USA).
# [2] = target: T2, CYP2B6 (Homo sapiens, UniProt P20813); experiment: as above; format: in vitro ADME; details: pooled HLMs, up to 50 μM, bupropion substrate
# T2 construct: from tissue; host or cells: pooled human liver microsomes
# T2 sequence (P20813 1-491): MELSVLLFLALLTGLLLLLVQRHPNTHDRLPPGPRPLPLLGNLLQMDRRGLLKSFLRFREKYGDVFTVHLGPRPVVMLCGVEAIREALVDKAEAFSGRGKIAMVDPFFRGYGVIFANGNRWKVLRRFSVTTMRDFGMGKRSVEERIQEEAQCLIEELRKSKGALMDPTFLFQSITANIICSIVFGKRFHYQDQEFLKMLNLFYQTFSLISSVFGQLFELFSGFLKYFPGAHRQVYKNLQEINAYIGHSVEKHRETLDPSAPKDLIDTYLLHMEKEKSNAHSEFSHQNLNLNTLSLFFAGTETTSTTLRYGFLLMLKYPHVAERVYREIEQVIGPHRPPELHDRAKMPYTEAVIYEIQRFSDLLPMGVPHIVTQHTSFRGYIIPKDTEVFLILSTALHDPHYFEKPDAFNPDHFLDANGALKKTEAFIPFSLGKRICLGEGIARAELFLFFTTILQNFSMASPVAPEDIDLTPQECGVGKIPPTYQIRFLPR
# Method: as §1, §2
# [3] = target: T3, CYP2C19 (Homo sapiens, UniProt P33261); experiment: as above; format: in vitro ADME; details: pooled HLMs, up to 50 μM, S-mephenytoin substrate
# T3 construct: from tissue; host or cells: pooled human liver microsomes
# T3 sequence (P33261 whole entry): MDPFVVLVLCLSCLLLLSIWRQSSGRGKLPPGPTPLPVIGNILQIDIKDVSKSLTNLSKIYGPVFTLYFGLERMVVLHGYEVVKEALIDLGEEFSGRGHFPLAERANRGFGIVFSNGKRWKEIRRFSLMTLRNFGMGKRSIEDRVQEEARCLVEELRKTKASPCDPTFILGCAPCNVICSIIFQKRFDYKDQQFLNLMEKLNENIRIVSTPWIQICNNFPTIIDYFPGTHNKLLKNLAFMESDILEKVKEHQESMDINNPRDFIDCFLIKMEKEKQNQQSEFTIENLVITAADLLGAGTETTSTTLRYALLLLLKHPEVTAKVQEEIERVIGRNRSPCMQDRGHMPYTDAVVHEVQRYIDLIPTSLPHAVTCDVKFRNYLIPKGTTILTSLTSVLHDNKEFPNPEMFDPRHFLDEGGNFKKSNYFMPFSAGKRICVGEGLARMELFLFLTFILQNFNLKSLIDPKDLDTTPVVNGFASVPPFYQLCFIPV
# Method: as §1, §2
# [4] = target: T4, CYP2C9 (Homo sapiens, UniProt P11712); experiment: as above; format: in vitro ADME; details: pooled HLMs, up to 50 μM, tolbutamide substrate
# T4 construct: from tissue; host or cells: pooled human liver microsomes
# T4 sequence (P11712 whole entry): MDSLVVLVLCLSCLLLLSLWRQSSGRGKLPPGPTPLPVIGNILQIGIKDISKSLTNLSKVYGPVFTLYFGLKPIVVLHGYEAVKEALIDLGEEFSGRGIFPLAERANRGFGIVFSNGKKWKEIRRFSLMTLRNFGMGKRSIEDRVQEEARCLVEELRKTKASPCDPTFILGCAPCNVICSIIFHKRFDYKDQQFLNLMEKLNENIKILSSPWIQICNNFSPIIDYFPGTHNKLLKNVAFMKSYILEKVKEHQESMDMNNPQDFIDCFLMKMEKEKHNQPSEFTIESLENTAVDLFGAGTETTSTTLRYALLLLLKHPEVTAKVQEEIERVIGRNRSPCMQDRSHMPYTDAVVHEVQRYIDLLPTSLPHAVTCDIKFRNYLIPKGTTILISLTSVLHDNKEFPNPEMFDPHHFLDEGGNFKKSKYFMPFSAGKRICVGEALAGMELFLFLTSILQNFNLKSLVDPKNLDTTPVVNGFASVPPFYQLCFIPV
# Method: as §1, §2
# [5] = target: T5, CYP2E1 (Homo sapiens, UniProt P05181); experiment: as above; format: in vitro ADME; details: pooled HLMs, up to 50 μM, chlorzoxazone substrate
# T5 construct: from tissue; host or cells: pooled human liver microsomes
# T5 sequence (P05181 whole entry): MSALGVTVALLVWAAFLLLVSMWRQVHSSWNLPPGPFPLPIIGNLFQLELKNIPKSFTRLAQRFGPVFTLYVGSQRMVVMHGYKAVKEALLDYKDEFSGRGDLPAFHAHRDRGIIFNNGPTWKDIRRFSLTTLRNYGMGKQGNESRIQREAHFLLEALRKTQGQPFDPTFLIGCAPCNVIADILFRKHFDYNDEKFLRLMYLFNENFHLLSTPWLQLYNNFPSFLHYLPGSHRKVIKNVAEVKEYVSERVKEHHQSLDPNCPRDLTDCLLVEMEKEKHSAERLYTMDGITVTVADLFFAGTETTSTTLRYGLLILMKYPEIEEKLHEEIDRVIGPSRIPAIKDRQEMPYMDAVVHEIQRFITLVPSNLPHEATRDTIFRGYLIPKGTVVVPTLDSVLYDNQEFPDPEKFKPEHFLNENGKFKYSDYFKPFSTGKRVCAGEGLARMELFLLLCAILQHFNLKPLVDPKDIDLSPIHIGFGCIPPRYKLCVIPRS
# Method: as §1, §2
# [6] = target: purified CYP3A4 (Homo sapiens, UniProt P08684); experiment: Spectral binding titration of purified CYP3A4; details: Type I or Type II spectral change
# Chain of purified CYP3A4 (P08684 whole entry): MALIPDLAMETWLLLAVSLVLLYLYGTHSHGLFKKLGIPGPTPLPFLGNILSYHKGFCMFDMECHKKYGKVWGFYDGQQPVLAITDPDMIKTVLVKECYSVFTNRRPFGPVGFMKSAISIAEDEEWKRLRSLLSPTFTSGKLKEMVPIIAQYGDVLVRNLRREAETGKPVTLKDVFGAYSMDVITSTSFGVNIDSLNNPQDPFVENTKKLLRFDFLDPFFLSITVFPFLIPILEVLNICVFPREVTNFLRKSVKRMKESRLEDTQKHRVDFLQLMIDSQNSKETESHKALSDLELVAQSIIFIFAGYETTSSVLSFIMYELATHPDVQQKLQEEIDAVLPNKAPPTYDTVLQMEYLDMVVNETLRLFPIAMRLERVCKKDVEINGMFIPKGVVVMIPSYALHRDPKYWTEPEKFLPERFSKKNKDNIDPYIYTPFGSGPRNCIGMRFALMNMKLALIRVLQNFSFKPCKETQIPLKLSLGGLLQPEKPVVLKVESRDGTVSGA
# Method: Purified CYP3A4 enzymes were diluted to 1 µM in 100 mM potassium phosphate buffer (pH 7.4) and then divided into two glass cuvettes. […] The binding titration was analysed using GraphPad Prism software (GraphPad, Inc., La Jolla, CA, USA).
# [7] = tested on: IP3K; details: [ATP] = 10 μM; cited from earlier work
smiles,measurement,setting,value
"O=[N+]([O-])c1ccc(CNc2nc(NCc3cccc(C(F)(F)F)c3)nc3[nH]cnc23)cc1 [TNP, N^6-[(4-nitrophenyl)methyl]-N^2-[[3-(trifluoromethyl)phenyl]methyl]-9H-purine-2,6-diamine]",inhibitory effect on CYP1A2,[1],no inhibitory effect
same,inhibitory effect on CYP2B6,[2],no inhibitory effect
same,inhibitory effect on CYP2C19,[3],no inhibitory effect
same,inhibitory effect on CYP2C9,[4],no inhibitory effect
same,inhibitory effect on CYP2E1,[5],no inhibitory effect
same,CYP3A4 binding mode,[6],Type I
same,IC50,[7],18 µM
